Data: patent US7488716B2 (priority 2001, dated 2009)
Where a SMILES comes first, the peptide text is derived from it. Where no end group is shown, it is not given here. The star is where a group is joined. PEG 22kD = 22 kDa polyethylene glycol (on cysteine); Palmitoyl = CCCCCCCCCCCCCCCC(=O)*

Experiments:
GLP-1 receptor [1] = biological target: T1, GLP-1 receptor (Rattus norvegicus, UniProt P32301); assay: Competitive binding of peptide to the GLP-1 receptor in RINm5F cell plasma membranes (125I GLP-1); conditions: read-out: GLP1 RIN IC50
T1 construct: endogenous in cells; host or cells: RINm5F cells
T1 sequence (P32301 22-463): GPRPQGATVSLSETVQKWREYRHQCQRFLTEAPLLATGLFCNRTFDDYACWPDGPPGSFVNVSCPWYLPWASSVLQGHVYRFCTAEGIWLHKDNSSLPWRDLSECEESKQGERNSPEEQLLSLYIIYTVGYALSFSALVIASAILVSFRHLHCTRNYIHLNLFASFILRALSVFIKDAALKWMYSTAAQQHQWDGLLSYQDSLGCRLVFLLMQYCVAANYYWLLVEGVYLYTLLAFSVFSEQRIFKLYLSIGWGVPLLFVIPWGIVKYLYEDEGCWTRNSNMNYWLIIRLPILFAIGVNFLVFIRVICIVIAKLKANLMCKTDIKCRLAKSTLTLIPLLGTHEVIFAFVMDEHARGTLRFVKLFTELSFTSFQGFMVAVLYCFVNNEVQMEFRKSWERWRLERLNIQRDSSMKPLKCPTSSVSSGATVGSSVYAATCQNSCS
Experimental: Flasks of RINm5F cells were washed with PBS, scraped in 20 mM Hepes-1 mM EDTA-250 mM sucrose buffer containing protease inhibitors (HES) and homogenized in a dounce homogenizer followed by repeated resuspension through a 23 gauge needle. Unbroken cells and nuclei were removed by centrifugation at 500×g for 5 minutes. The pellet was resuspended in HES buffer using a 23 gauge needle and the centrifugation was repeated. The supernatants from the two spins were combined and centrifuged at 40,000×g for 20 min. The resulting plasma membrane pellet was resuspended in HES buffer using a 23 gauge needle followed by a 25 gauge needle. Membranes were stored at −80° C. until use.
Competitive binding of some polypeptides of the invention to RINm5F cell plasma membranes was measured as follows. Ninety-six-well GF/C filtration plates (Millipore, Bedford, Mass.) were blocked with 0.3% PEI for at least one hour and washed twice with binding buffer consisting of 20 mM Tris, 2 mM EDTA, pH 7.5, 1 mg/ml BSA, and 1 mg/ml bacitracin. […] The plates were dried, scintillant was added to each well, and cpm per well determined using a Wallac Microbeta counter.

glucagon receptor = biological target: T2, glucagon receptor (Rattus norvegicus, UniProt P30082); assay: Competitive binding of peptide to the glucagon receptor in rat liver plasma membranes (125I glucagon)
T2 construct: glucagon receptor present in the plasma membranes isolated from rat liver; from tissue; host or cells: rat liver plasma membranes
T2 sequence (P30082 27-485): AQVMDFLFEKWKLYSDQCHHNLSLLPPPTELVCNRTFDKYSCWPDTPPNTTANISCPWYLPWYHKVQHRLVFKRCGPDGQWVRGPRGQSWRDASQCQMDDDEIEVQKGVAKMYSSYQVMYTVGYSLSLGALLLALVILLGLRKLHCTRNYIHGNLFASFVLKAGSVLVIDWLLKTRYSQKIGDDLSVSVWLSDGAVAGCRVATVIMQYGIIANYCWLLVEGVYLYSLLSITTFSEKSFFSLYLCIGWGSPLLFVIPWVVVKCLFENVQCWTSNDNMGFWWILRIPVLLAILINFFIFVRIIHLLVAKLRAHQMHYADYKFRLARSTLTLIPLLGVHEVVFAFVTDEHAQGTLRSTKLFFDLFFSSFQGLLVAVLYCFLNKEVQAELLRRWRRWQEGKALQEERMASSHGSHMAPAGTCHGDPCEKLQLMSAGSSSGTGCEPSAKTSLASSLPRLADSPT
Experimental: The wet weight of the livers was determined and the tissue minced in 5 volumes of ice cold TES buffer and a slurry prepared using a polytron. All buffers and spins were kept at 4° C. The slurry was further homogenized using three strokes of a handheld dounce homogenizer. The homogenate was passed through several layers of cheesecloth and spun at 25,000×g for 10 minutes. Pellets were homogenized in 22.1 ml TES buffer using 10 strokes of a handheld dounce homogenizer. Twenty-seven point nine milliliters of 2.4 M sucrose in TE was added and mixed well. The homogenate was distributed among several tubes, and each tube was overlaid with 7 ml of TES buffer. The tubes were spun at 120,000×g for 60 minutes. The plasma membranes were removed from the interface that formed during the spin, diluted in TES and concentrated using a 15 minute spin at 200,000×g. The resulting pellet was again homogenized in 9.8 ml TES buffer, combined with 10.3 ml 2.4M sucrose, overlaid with 7 ml TES, and centrifuged at 180,000×g for 30 min. […] The final pellet was resuspended in TES. Plasma membranes were stored at −80° C. until ready for use.
Competitive binding of some polypeptides of the invention to rat liver plasma membranes was measured as follows. Ninety-six-well GF/C filtration plates (Millipore, Bedford, Mass.) were blocked with 0.1% PEI for at least one hour and washed twice with binding buffer consisting of 20 mM Tris, 2 mM EDTA, pH 7.5, 1 mg/ml BSA, and 1 mg/ml bacitracin. […] The plates were dried, scintillant was added to each well, and cpm per well determined using a Wallac Microbeta counter.

[2] = Intraperitoneal glucose tolerance testing (IPGTT) in rats or mice; assay type: in vivo; conditions: ipGTT in mice 3 hours post dosing with 100 μg/kg peptide
Experimental: Blood glucose levels during intraperitoneal glucose tolerance testing in rats or mice by some polypeptides of the invention were measured as follows. The in vivo activity of the polypeptides of the invention when administered subcutaneously was examined in rats or mice. Rats or mice fasted overnight were given a subcutaneous injection of control or peptide (100 μg/kg). Basal blood glucose was measured prior to administration of peptides or three or 17 hours after administration of derivatized peptides, and the rats or mice were given 2 g/kg of glucose intraperitoneally. Blood glucose was measured again after 15, 30 and 60 minutes in rats or 30 and 60 minutes in mice.

GLP-1 receptor [3] = biological target: T1, GLP-1 receptor; assay: Peptide signaling through GLP-1 receptor, cAMP scintillation proximity assay in RINm5F cells; assay type: cell-based; conditions: for GLP1 Relative Potency: EC50 of native GLP-1 (7-36) divided by EC50 of polypeptide x 100, cAMP in RINm5F cells; for Emax: RIN-m5F, read-out: % GLP1 max
Experimental: The media was removed and the cells were washed twice with PBS. […] For assay of peptides conjugated with fatty acid, the BSA was omitted from the incubation buffer. The incubation buffer was removed, and the cells were lysed in the lysis reagent provided with the cAMP Scintillation Proximity Assay (SPA) direct screening assay system (Amersham Pharmacia Biotech Inc, Piscataway, N.J.). The amount of cAMP (in pmol) present in the lysates was determined following instructions provided with this kit.
The amount of cAMP (in pmol) produced at each concentration of peptide was plotted and analyzed by nonlinear regression using Prizm software to determine the EC50 for each peptide.

Row | Compound | IC50 (GLP-1 receptor [1]) | IC50 (glucagon receptor) | In vivo Decrease IpGTT AUC [2] | GLP1 Relative Potency (GLP-1 receptor [3]) | Emax (GLP-1 receptor [3]) | % GLP1 max (GLP-1 receptor [3]; maximal cAMP activity relative to native GLP-1 (7-36), RINm5F cells)
1 | CCCCCCCCCCCCCCCC(=O)NCCCC[C@H](NC(=O)[C@H](CCCNC(=N)N)NC(=O)CNC(=O)[C@H](CCCCN)NC(=O)[C@@H](NC(=O)[C@H](CC(C)C)NC(=O)[C@H](Cc1c[nH]c2ccccc12)NC(=O)[C@H](C)NC(=O)[C@@H](NC(=O)[C@H](Cc1ccccc1)NC(=O)[C@H](CCC(=O)O)NC(=O)[C@H](CCCCN)NC(=O)[C@H](C)NC(=O)[C@H](CCCNC(=N)N)NC(=O)[C@H](CCCNC(=N)N)NC(=O)[C@H](C)NC(=O)[C@H](CC(=O)O)NC(=O)[C@H](CC(C)C)NC(=O)[C@H](Cc1ccc(O)cc1)NC(=O)[C@H](CCCCN)NC(=O)[C@H](C)NC(=O)[C@H](Cc1ccc(O)cc1)NC(=O)[C@H](CC(=O)O)NC(=O)[C@H](CO)NC(=O)[C@@H](NC(=O)[C@H](Cc1ccccc1)NC(=O)[C@@H](NC(=O)CNC(=O)[C@H](CCC(N)=O)NC(=O)[C@H](CO)NC(=O)[C@@H](N)Cc1c[nH]cn1)[C@@H](C)O)[C@@H](C)O)[C@@H](C)CC)C(C)C)C(=O)O [G88] (H-HSQGTFTSDYAKYLDARRAKEFIAWLVKGRK(Palmitoyl)-OH; N-terminus and C-terminus assumed) | 109 nM | 350 nM | 16% | 2.3% | 118% | –
2 | CCCCCCCCCCCCCCCC(=O)NCCCC[C@H](NC(=O)[C@H](C)NC(=O)[C@H](CCCNC(=N)N)NC(=O)[C@H](CCCNC(=N)N)NC(=O)[C@H](C)NC(=O)[C@H](CC(=O)O)NC(=O)[C@H](CC(C)C)NC(=O)[C@H](Cc1ccc(O)cc1)NC(=O)[C@H](CCCNC(=N)N)NC(=O)[C@H](C)NC(=O)[C@H](Cc1ccc(O)cc1)NC(=O)[C@H](CC(=O)O)NC(=O)[C@H](CO)NC(=O)[C@@H](NC(=O)[C@H](Cc1ccccc1)NC(=O)[C@@H](NC(=O)CNC(=O)[C@H](CCC(N)=O)NC(=O)[C@H](CO)NC(=O)[C@@H](N)Cc1c[nH]cn1)[C@@H](C)O)[C@@H](C)O)C(=O)N[C@@H](CCC(=O)O)C(=O)N[C@@H](Cc1ccccc1)C(=O)N[C@H](C(=O)N[C@@H](CCCCN)C(=O)N[C@@H](Cc1c[nH]c2ccccc12)C(=O)N[C@@H](CC(C)C)C(=O)N[C@H](C(=O)N[C@@H](CCCNC(=N)N)C(=O)NCC(=O)N[C@@H](CCCNC(=N)N)C(=O)NCC(=O)O)C(C)C)[C@@H](C)CC [G183] (H-HSQGTFTSDYARYLDARRAK(Palmitoyl)EFIKWLVRGRG-OH; N-terminus and C-terminus assumed) | – | – | 27% | 0.6% | 90.5% | –
3 | CCCCCCCCCCCCCCCC(=O)NCCCC[C@H](NC(=O)[C@@H](NC(=O)[C@H](Cc1ccccc1)NC(=O)[C@H](CCC(=O)O)NC(=O)[C@H](CCCNC(=N)N)NC(=O)[C@H](C)NC(=O)[C@H](CCCNC(=N)N)NC(=O)[C@H](CCCNC(=N)N)NC(=O)[C@H](C)NC(=O)[C@H](CC(=O)O)NC(=O)[C@H](CC(C)C)NC(=O)[C@H](Cc1ccc(O)cc1)NC(=O)[C@H](CCCNC(=N)N)NC(=O)[C@H](C)NC(=O)[C@H](Cc1ccc(O)cc1)NC(=O)[C@H](CC(=O)O)NC(=O)[C@H](CO)NC(=O)[C@@H](NC(=O)[C@H](Cc1ccccc1)NC(=O)[C@@H](NC(=O)CNC(=O)[C@H](CCC(N)=O)NC(=O)[C@H](CO)NC(=O)[C@@H](N)Cc1c[nH]cn1)[C@@H](C)O)[C@@H](C)O)[C@@H](C)CC)C(=O)N[C@@H](Cc1c[nH]c2ccccc12)C(=O)N[C@@H](CC(C)C)C(=O)N[C@H](C(=O)N[C@@H](CCCNC(=N)N)C(=O)NCC(=O)N[C@@H](CCCNC(=N)N)C(=O)NCC(=O)O)C(C)C [G90] | 25.4 nM | 726 nM | 13% | 0.8% | 83.5% | –
4 | CCCCCCCCCCCCCCCC(=O)NCCCC[C@H](NC(=O)CNC(=O)[C@H](CCCNC(=N)N)NC(=O)CNC(=O)[C@H](CCCNC(=N)N)NC(=O)[C@@H](NC(=O)[C@H](CC(C)C)NC(=O)[C@H](Cc1c[nH]c2ccccc12)NC(=O)[C@H](CCCCN)NC(=O)[C@@H](NC(=O)[C@H](Cc1ccccc1)NC(=O)[C@H](CCC(=O)O)NC(=O)[C@H](CCCNC(=N)N)NC(=O)[C@H](C)NC(=O)[C@H](CCCNC(=N)N)NC(=O)[C@H](CCCNC(=N)N)NC(=O)[C@H](C)NC(=O)[C@H](CC(=O)O)NC(=O)[C@H](CC(C)C)NC(=O)[C@H](Cc1ccc(O)cc1)NC(=O)[C@H](CCCNC(=N)N)NC(=O)[C@H](C)NC(=O)[C@H](Cc1ccc(O)cc1)NC(=O)[C@H](CC(=O)O)NC(=O)[C@H](CO)NC(=O)[C@@H](NC(=O)[C@H](Cc1ccccc1)NC(=O)[C@@H](NC(=O)CNC(=O)[C@H](CCC(N)=O)NC(=O)[C@H](CO)NC(=O)[C@@H](N)Cc1c[nH]cn1)[C@@H](C)O)[C@@H](C)O)[C@@H](C)CC)C(C)C)C(=O)O [G182] (H-HSQGTFTSDYARYLDARRAREFIKWLVRGRGK(Palmitoyl)-OH; N-terminus and C-terminus assumed) | 12.6 nM | 220 nM | 14% | 1.4% | 104% | –
5 | HSQGTFTSDYAKYLDARRAKEFIAWLVKGRC(22kD) (HSQGTFTSDYAKYLDARRAKEFIAWLVKGRC(PEG 22kD); listed as Homo sapiens) [G277, 22kD PEG linked to the cysteine residue] | – | – | 46% | 1.8% | – | 93.7%
